Data published in PubChem BioAssay (NCI).
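Five concentrations, 48 hours, 96-well plates. TGI: concentration producing complete growth inhibition.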

Experiments:
Test in all cases: growth of human tumour cells (NCI), 48 h
786-0 renal = test system: 786-0 renal
A549 NSCLC = test system: A549 NSCLC
ACHN renal = test system: ACHN renal
HCT-116 colon = test system: HCT-116 colon
HCT-15 colon = test system: HCT-15 colon
HL-60(TB) leukemia = test system: HL-60(TB) leukemia
HOP-62 NSCLC = test system: HOP-62 NSCLC
LOX IMVI melanoma = test system: LOX IMVI melanoma
LXFL 529 NSCLC = test system: LXFL 529 NSCLC
MALME-3M melanoma = test system: MALME-3M melanoma
MOLT-4 leukemia = test system: MOLT-4 leukemia
NCI-H23 lung = test system: NCI-H23 lung
RXF 393 renal = test system: RXF 393 renal
SNB-19 CNS = test system: SNB-19 CNS
SR leukemia = test system: SR leukemia
UACC-257 melanoma = test system: UACC-257 melanoma
UACC-62 melanoma = test system: UACC-62 melanoma
MCF7 breast = test system: MCF7 breast
MDA-N = test system: MDA-N
T-47D breast = test system: T-47D breast

Row | SMILES | TGI (786-0 renal) [µM] | TGI (A549 NSCLC) [µM] | TGI (ACHN renal) [µM] | TGI (HCT-116 colon) [µM] | TGI (HCT-15 colon) [µM] | TGI (HL-60(TB) leukemia) [µM] | TGI (HOP-62 NSCLC) [µM] | TGI (LOX IMVI melanoma) [µM] | TGI (LXFL 529 NSCLC) [µM] | TGI (MALME-3M melanoma) [µM] | TGI (MOLT-4 leukemia) [µM] | TGI (NCI-H23 lung) [µM] | TGI (RXF 393 renal) [µM] | TGI (SNB-19 CNS) [µM] | TGI (SR leukemia) [µM] | TGI (UACC-257 melanoma) [µM] | TGI (UACC-62 melanoma) [µM] | TGI (MCF7 breast) [µM] | TGI (MDA-N) [µM] | TGI (T-47D breast) [µM]
1 | NCCCC(N=Cc1nc(-c2ccccc2)oc1O)C(=O)O (configuration not stated) | > 100 | > 100 | > 100 | > 100 | > 100 | > 100 | > 100 | > 100 | > 100 | > 100 | > 100 | > 100 | > 100 | > 100 | > 100 | > 100 | > 100 |  |  | 
2 | O=c1[nH]c2ccc(Cl)cc2o1 | > 100 | > 100 | > 100 | > 100 | > 100 | > 100 | > 100 | > 100 |  | > 100 | > 100 | > 100 | > 100 | > 100 | > 100 | > 100 | > 100 | > 100 | > 100 | > 100
3 | Cc1cccc(Nc2nc3ccccc3nc2NS(=O)(=O)c2ccccc2)c1 | > 100 | > 100 | > 100 | > 100 | 65.9 | 37.8 | 87.1 | > 100 |  | > 100 | 61.6 | 93.1 | > 100 | 91.5 | > 100 | > 100 | > 100 | > 100 | > 100 | > 100
4 | O=C(Cn1c(C(=O)/C=C/c2ccc(Cl)cc2)nc2ccccc21)c1ccc(Cl)cc1 | 66.8 | 71.5 | 72.5 | 26.2 | 51.8 | 29.1 | 41.6 | 36.5 |  | 52.6 | 14.5 | 77.6 | 32.6 | 69.5 | 22.9 | 68.2 | 33.7 | 30.9 | 61 | > 100
5 | COc1cccc(/C=C2\SC(=S)N(/C=C3\C(=O)Oc4ccccc4C3=O)C2=O)c1O | > 100 | > 100 | > 100 | > 100 | > 100 | > 100 | > 100 | > 100 |  | > 100 | > 100 | > 100 | > 100 | > 100 | > 100 | > 100 | > 100 | > 100 | > 100 | > 100
6 | C[C@H](CCC(=O)NCCS(=O)(=O)O)[C@H]1CC[C@H]2[C@@H]3[C@H](O)C[C@@H]4C[C@H](O)CC[C@]4(C)[C@H]3CC[C@]12C | > 100 | > 100 | > 100 | > 100 | > 100 | > 100 | > 100 | > 100 |  | > 100 | > 100 | > 100 | > 100 | > 100 | > 100 | > 100 | > 100 | > 100 | > 100 | > 100
7 | CC(=O)c1c2c(cc3c1CC1(Cc4cc5c(cc4C1)C(=O)CCC5)C3)CCCC2 (configuration not stated) | 33.1 | > 88.2 | 17.2 | > 47.1 | 19.3 | 4.17 | 43.4 | > 53.5 |  | > 100 | 7.96 | > 100 | > 25.7 | 80.9 | 5.53 | 15.4 | > 39.2 | 18.7 | 12.9 | > 81.7
8 | CSC1(C(=O)O)C2CCC3C2CCC31 (configuration not stated) | > 100 | > 100 | > 100 | > 100 | > 100 | > 100 | > 100 | > 100 |  | > 100 | > 100 | > 100 | > 100 | > 100 | > 100 | > 100 | > 100 | > 100 | > 100 | > 100
9 | C=CCSC1=N/C(=C\c2ccc(OC)cc2)C(=O)N1CC=C | > 100 | > 100 | > 100 | > 100 | > 100 | 34.8 | > 100 | > 100 |  | 87.7 | 37.1 | > 100 | 50.1 | > 100 | 43.7 | 58.4 | > 100 | > 100 | 59.8 | > 100
10 | COc1ccc2c(C)cc(N/N=C/c3ccc(C)s3)nc2c1 | 31.6 | 39.7 | > 52.4 | > 46.4 | 41.3 | > 56.2 | 56.9 | 11.1 |  | > 69.6 | 36.9 | > 48.8 | 33.8 | > 67.2 | 31 | > 52.9 | > 54.6 | 25.3 | > 62.7 | 26
11 | O=[N+]([O-])C(C(Cl)=C(Cl)Cl)=C(n1nnc2ccccc21)n1nnc2ccccc21 | 20.4 | > 72.4 | > 65.8 | 50.2 | 61.7 | 13.5 | > 68.4 | > 66.3 |  | 49 | 26.2 | > 75.5 | 50 | > 100 | 17.4 | > 68.1 | > 58.2 | > 55.4 | 61.2 | > 80.6
12 | COc1ccc(/C=N/N=C(\N)NO)cc1F | 48.5 | 85.6 | 45.3 | > 100 | > 100 | > 100 | 72.5 | 48.7 | > 100 | > 100 | > 100 | 81 | 73.2 | > 100 | 86.5 | > 100 | 36.3 |  |  | 
13 | O=CC(O)C(O)C1OC(=O)c2cc(O)c(O)c(O)c2C2=C(O)C(O)=C3OC(=O)c4c(c(O)c(O)c5c4C3C2C(=O)O5)-c2c(cc(O)c(O)c2O)C(=O)OCC1O (configuration not stated) | 32.2 | > 100 | > 100 | 29 | > 100 | 67.7 | > 100 | 31.9 |  | > 100 | 63.3 | > 100 | > 100 | > 100 | 63 | > 100 | > 100 | 39.7 | 41.1 | > 100
14 | CC(=O)N1C(CCc2ccccc2)CC(C)(C=O)C1Cc1ccc(O[Si](C(C)C)(C(C)C)C(C)C)cc1 (configuration not stated) | 6.43 | 15.2 | 18.8 | 9.03 | 10.7 | 4.42 | 25.9 | 3.85 |  | 27.3 | > 21.5 | 24.3 | 5.81 | 18.1 | > 21.7 | 10.6 | 16.3 | 5.26 | 6.4 | 12.9
15 | COC(=O)[C@@H](NC(=O)[C@H](N)Cc1ccc(N(CCCl)CCCl)cc1)C(C)C | 49.7 | > 100 | 51.8 | 44.1 | 72.8 | > 51.8 | > 100 | 37.9 |  | 6.19 | 0.234 | 16.8 | 55.5 | > 100 | > 38.6 | 25 | 13.4 | > 100 | > 68 | 35.5
16 | CCOC(=O)N/N=C(\CC)NO | > 100 | > 100 | > 100 | > 100 | > 100 | > 100 | > 100 | > 100 |  | > 100 | > 100 | > 100 | > 100 | > 100 | > 100 | > 100 | > 100 | > 100 | > 100 | > 100
17 | CCN(CC)/[N+]([O-])=N/OCOC | > 100 | > 100 | > 100 | > 100 | > 100 | > 100 | > 100 | > 100 |  | > 100 | > 100 | > 100 | > 100 | > 100 | > 100 | > 100 | > 100 | > 100 | > 100 | > 100
18 | COc1ccc(C(OCC2OC3(COC(c4ccccc4)(c4ccc(OC)cc4)c4ccc(OC)cc4)C(Oc4nc(=O)ccn43)C2O)(c2ccccc2)c2ccc(OC)cc2)cc1 (configuration not stated) | > 100 | > 100 | > 100 | > 100 | > 100 | > 100 | > 100 | > 100 |  | > 100 | > 100 | > 100 | > 100 | > 100 | > 100 | > 100 | > 100 | > 100 | > 100 | > 100
19 | O=[N+]([O-])c1cccc(-c2cn3c(n2)Cc2ccccc2C3)c1 | > 100 | > 100 | > 100 | > 100 | > 100 | > 100 | > 100 | > 100 |  | > 100 | > 100 | > 100 | > 100 | > 100 | > 100 | > 100 | > 100 | > 100 | > 100 | > 100
20 | CC(NP(=O)(c1ccccc1)c1ccccc1)c1ccccc1 (configuration not stated) | > 100 | > 100 | > 100 | > 100 | > 100 | > 100 | > 100 | > 100 |  | > 100 | > 100 | > 100 | > 100 | > 100 | > 100 | > 100 | > 100 | > 100 | > 100 | > 100
21 | O=C1C[C@@H]2[C@@H](c3ccccc3)[C@@H]3C(=O)c4ccccc4NC(=O)[C@H]3[C@]2(O)c2ccccc2N1 | > 100 | > 100 | > 100 | > 100 | > 100 | > 100 | > 100 | > 100 | > 100 | > 100 | > 100 | > 100 | > 100 | > 100 | > 100 |  | > 100 |  |  | 
22 | CC(C)=CCC/C(C)=C/Cc1c(O)c(C)cc2c1[nH]c1cc(O)ccc12 | > 25 | > 25 | > 25 | > 25 | > 25 | > 25 | > 25 | > 25 | > 25 | > 25 | > 25 |  | > 25 | > 25 | > 25 |  | > 25 |  |  | 
23 | CCO[C@@]12CCC3CC4CC[C@@](OCC)(O1)C4C32 (some centres not stated) | > 100 | > 100 | > 100 | > 100 | > 100 | > 100 | > 100 | > 100 |  | > 100 | > 100 | > 100 | > 100 | > 100 | > 100 | > 100 | > 100 | > 100 | > 100 | > 100
24 | C=CC(=O)Nc1ccccc1CC(c1c[nH]c2ccccc12)c1c[nH]c2ccccc12 | 36.2 | 56.7 |  |  | 38.7 |  | 35.1 | 36.3 | 30.6 | 33.3 | 46.4 | 38.2 |  | 31.8 |  | 40.5 | 31.2 |  |  | 
25 | CC1CC(=NC2CCCCC2)Nc2ccccc2N1Cc1ccccc1 (configuration not stated) | > 39 | 16.5 | 22.8 | > 35.6 | 19.1 | 20.2 | 20.3 | 6.85 |  | 8.8 | 30 | 22.3 | 10.5 | 24.2 | > 100 | 13.2 | 3.69 | 14.5 | 12.5 | 20.7
